Data from patent US20240301504A1, “MULTIANALYTE BIOMARKERS FOR LUNG CANCER” (The Curators of the University of Missouri, priority 2021, published 2024).

Tested on: H1975 cells
Assay: Trypan blue exclusion cell death assay in H1975 cells
Type: cell-based
Conditions: Osimertinib 100 nM, 24 hrs, FIG. 13C
Method: miRNA Transfections and Osimertinib treatments miRNA stock was prepared by suspending in RNAse-free water. Cells were seeded such that they were 70-80% confluent at the time of transfection. Cells were allowed to adhere for 24 hrs and then transfected with 25 nM of miRNA inhibitors against hsa-miR184 (Sigma #HSTUD0282), hsa-miR22-3p (Sigma #HSTUD0393) or 100 nM of hsa-let7b-5p miRNA mimic (Sigma c #HMI0007) using Lipofectamine 3000 (Invitrogen #L3000001). Osimertinib (100 nM) was added an hour after transfection to cells. Cells were allowed to incubate with transfection mix for 24 hrs at 37° C., 5% CO2 and then washed with 1× PBS and trypsinized to be used for cell count and Western blotting.

For `C=CC(=O)Nc1cc(Nc2nccc(-c3cn(C)c4ccccc34)n2)c(OC)cc1N(C)CCN(C)C` [Osimertinib], the H1975 cell death was “induced”.
